Assay results: patent US9056851B2, “Thiolactone antibiotics” (priority 2011, dated 2015)
Converted amounts (≈) assume the structure as drawn.

How the values were obtained:
M. smegmatis MC^2155 = assay: MIC against M. smegmatis; type: cell-based; conditions: Mycolicibacterium smegmatis, MC^2155; MIC90; read-out: MIC (μg/ml) M. smeg
M. tuberculosis H37Rv = assay: MIC against M. tuberculosis; type: cell-based; conditions: Mycobacterium tuberculosis; MIC99; H37Rv; read-out: MIC (μg/ml) M. tb (MIC99)
F. tularensis LVS = assay: microbe, parasite or virus in culture; type: cell-based; conditions: Francisella tularensis, read-out: MIC (μg/ml) F. tu
Y. pestis A1122 = assay: microbe, parasite or virus in culture; type: cell-based; conditions: Yersinia pestis, A1122, read-out: MIC (μg/ml) Y. pestis
B. thialandensis Bt38 = assay: MIC against B. thialandensis; type: cell-based; conditions: read-out: MIC (μg/ml) B. thialandensis Bt.38 (efflux^−)
S. aureus RN4220 = assay: MIC against S. aureus RN4220 (MSSA); type: cell-based; conditions: Staphylococcus aureus, MIC90, read-out: MIC (μg/ml) Staph. aureus RN4220 MSSA
S. aureus BAA1762 = assay: MIC against S. aureus BAA1762 (MRSA); type: cell-based; conditions: Staphylococcus aureus; MIC90; read-out: MIC (μg/ml) Staph. aureus BAA1762 MRSA
wild-type apo-KasA = wild-type apo-KasA (Mycobacterium tuberculosis, UniProt P9WQD9); assay: biochemical; type: binding
Sequence of wild-type apo-KasA (P9WQD9 whole entry): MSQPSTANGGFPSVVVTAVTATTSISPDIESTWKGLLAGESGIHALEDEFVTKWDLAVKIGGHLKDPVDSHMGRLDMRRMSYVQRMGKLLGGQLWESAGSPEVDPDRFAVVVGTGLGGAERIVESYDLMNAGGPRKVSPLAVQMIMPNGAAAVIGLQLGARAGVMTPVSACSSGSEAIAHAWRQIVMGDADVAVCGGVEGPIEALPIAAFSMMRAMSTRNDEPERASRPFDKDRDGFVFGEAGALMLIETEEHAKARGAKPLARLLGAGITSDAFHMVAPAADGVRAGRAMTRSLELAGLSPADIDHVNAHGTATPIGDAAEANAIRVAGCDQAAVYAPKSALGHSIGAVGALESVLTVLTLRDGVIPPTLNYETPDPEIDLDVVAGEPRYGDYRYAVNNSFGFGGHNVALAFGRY

B. pseudomallei Bp82z66 = assay: microbe, parasite or virus in culture; type: cell-based; conditions: Burkholderia pseudomallei, BP82Z66, read-out: MIC (μg/ml) B. pseudomallei

Structure (SMILES) | MIC (M. smegmatis MC^2155) [µg/mL] | MIC99 (M. tuberculosis H37Rv) [µg/mL] | MIC (F. tularensis LVS) [µg/mL] | MIC (Y. pestis A1122) [µg/mL] | MIC (B. thialandensis Bt38) [µg/mL] | MIC (S. aureus RN4220) [µg/mL] | MIC (S. aureus BAA1762) [µg/mL] | Ki (wild-type apo-KasA) [µM] | Kd (wild-type apo-KasA; Kd (μM) apo-KasA, Table 1, wild-type apo-KasA, fluorescence spectroscopy) [µM] | MIC (B. pseudomallei Bp82z66) [µg/mL]
C=C/C(C)=C/[C@@]1(C)SC(=O)C=C1O [TLM2, 5R-(+)-3-Demethylthiolactomycin] | > 100 | > 100 | 124 (≈ 631 µM) | 250 (≈ 1270 µM) | 148 (≈ 756 µM) | 150 (≈ 764 µM) | 100 (≈ 509 µM) |  |  | 
C=C/C(C)=C/[C@@]1(C)SC(=O)C(CC)=C1O [TLM3, 5R-(+)-3-Ethylthiolactomycin] | > 100 | < 7.8 | 6.9 (≈ 30.8 µM) | 145 (≈ 645 µM) | 148 (≈ 661 µM) | 150 (≈ 669 µM) | 125 (≈ 557 µM) |  |  | 
C=C/C(C)=C/[C@@]1(C)SC(=O)C(CCC)=C1O [TLM4, 5R-(+)-3-Propylthiolactomycin] | > 100 | 12.5 (≈ 52.4 µM) | 25.8 (≈ 108 µM) | 250 (≈ 1050 µM) | 250 (≈ 1050 µM) | > 200 | > 200 |  |  | 
C=C/C(C)=C/[C@@]1(C)SC(=O)C(CCc2ccc(C)cc2)=C1O [TLM5] | > 100 | 25 (≈ 79.5 µM) | 3.45 (≈ 11 µM) | 250 (≈ 795 µM) | 250 (≈ 795 µM) | > 64 | > 100 |  |  | 
C=C/C(C)=C/[C@@]1(C)SC(=O)C(CCCCc2ccc(F)cc2)=C1O [TLM6] | > 100 | 25 (≈ 72.2 µM) | 3.15 (≈ 9.1 µM) | 250 (≈ 722 µM) | 250 (≈ 722 µM) | > 64 | 75 (≈ 216 µM) |  |  | 
C=C/C(C)=C/[C@@]1(C)SC(=O)C(CCCCc2ccc(Cl)cc2)=C1O [TLM7] | > 100 | 25 (≈ 68.9 µM) | 1.73 (≈ 4.77 µM) | 250 (≈ 689 µM) | 81 (≈ 223 µM) | 64 (≈ 176 µM) | 50 (≈ 138 µM) |  |  | 
C=C/C(C)=C/[C@@]1(C)SC(=O)C(CCCCc2ccc(Br)cc2)=C1O [TLM8] | > 100 | 25 (≈ 61.4 µM) | 2.17 (≈ 5.33 µM) | 250 (≈ 614 µM) | 126 (≈ 309 µM) | 32 (≈ 78.6 µM) | 50 (≈ 123 µM) |  |  | 
C=C/C(C)=C/[C@@]1(C)SC(=O)C(CCCCc2ccc(-c3ccccc3)cc2)=C1O [TLM9] |  | 50 (≈ 124 µM) | 1.97 (≈ 4.88 µM) | 250 (≈ 618 µM) | 145 (≈ 359 µM) | 16 (≈ 39.5 µM) | 25 (≈ 61.8 µM) |  |  | 
C=C/C(C)=C/[C@@]1(C)SC(=O)C(CCCN=[N+]=[N-])=C1O [TLM10] |  | 12.5 (≈ 44.7 µM) | 23.5 (≈ 84.1 µM) | 250 (≈ 895 µM) | 250 (≈ 895 µM) | > 64 | > 100 | 233 ± 7 | 233 ± 7 | 
C=C/C(C)=C/[C@@]1(C)SC(=O)C=C1OCC(=O)NCCn1cc(CNC(=O)[C@H](O)C(C)(C)CO)nn1 [TLM26] |  | > 100 | 159 (≈ 313 µM) |  |  | > 64 | > 64 |  |  | 150 (≈ 295 µM)
C=C/C(C)=C/[C@@]1(C)SC(=O)C(CCc2ccc(Cl)cc2)=C1O [TLM31] |  | 25 (≈ 74.7 µM) | 3.1 (≈ 9.24 µM) | 250 (≈ 747 µM) | 250 (≈ 747 µM) | 64 (≈ 191 µM) | 100 (≈ 299 µM) |  |  | 
C=C/C(C)=C/[C@@]1(C)SC(=O)C(CCCCN=[N+]=[N-])=C1O [TLM32] |  | 50 (≈ 170 µM) | 15.3 (≈ 52.3 µM) | 250 (≈ 852 µM) | 250 (≈ 852 µM) | > 64 | > 100 |  |  | 
C=C/C(C)=C/[C@@]1(C)SC(=O)C(CCCCn2cc(CNC(=O)[C@H](O)C(C)(C)CO)nn2)=C1O [TLM33] |  | > 100 | 250 (≈ 522 µM) | 250 (≈ 522 µM) | 250 (≈ 522 µM) | > 64 | > 100 |  |  | 
